# Experiments:
# [1] = test system: intracellular ATP levels in TYS-Luc cells; test: Intracellular ATP levels, TYS-Luc cells; format: cell-based, human; settings: 10,000 nM thapsigargin, 1 hr
# Experimental: TYS-Luc cells were maintained DMSO vehicle (Veh), 1,000 nM BHPI, 1,000 nM (−)-105 with and without 10,000 nM thapsigargin (THG) for the indicated times. ATP levels were determines using a kit and relative ATP levels were from a standard curve. […] (n=3±SEM).
# TYS-Luc cells = test: Cell death with or without thapsigargin, TYS-Luc; format: cell-based, human; settings: 1 hour
# Excerpt: TYS-Luc cells were maintained in DMSO vehicle (Veh) or BHPI, or (−)-105 with or without thapsigargin (THG) for the indicated times. Blocking the decline in ATP levels (FIG. 19) with THG inhibited (−)-105-induced cell death.
smiles,measurement,setting,value
"C/C=C(/C)C(=O)O[C@H]1C(C)=C2[C@H]([C@@H]1OC(=O)CCCCCCC)[C@@](C)(OC(C)=O)C[C@H](OC(=O)CCC)[C@@]1(O)[C@H]2OC(=O)[C@@]1(C)O [THG, thapsigargin, reference compound]",block of (−)-105-induced decline in intracellular ATP levels,[1],completely blocked
same,inhibition of (−)-105-induced cell death,TYS-Luc cells,strong inhibition

# Source: patent US11046647B2, “Activators of the unfolded protein response” (The Board of Trustees of the University of Illinois, priority 2018, dated 2021)
